Test results from patent US12637499B2, “Adrenomedullin analog, method for producing the same, and pharmaceutical use thereof” (priority 2020, dated 2026).
Where a SMILES comes first, the peptide text is derived from it. Bridges are numbered along the chain shown (N, C = ends).

Experiments:
in vitro = settings: Experiment VIII; 10^−7 M, 37° C.; 4 hours after the beginning of reaction
Experimental: The stabilities of the AM analog peptides in serum were evaluated with the same procedure as in Experiment I except the following procedure. […] A reaction mixture containing 4 μL of phosphate buffer, 20 μL of human serum (Sigma-Aldrich Co. LLC, USA), and 14 μL of water was prepared. To the reaction mixture, 2 μL of AM or an AM analog peptide (2×10^−6 M, final concentration: 10^−7 M) was added, and reaction was initiated at 37° C. The reaction was terminated by addition of 160 μL of ELISA buffer to the reaction mixture 0, 1, or 4 hours after the beginning of reaction. […] In the figure, the abscissa represents reaction time (hr), and the ordinate represents concentration in serum of AM or an AM analog (%) represented as relative values to concentration of AM or an AM analog at the beginning of reaction (i.e., 0 hours after the beginning of reaction).

[1] = biological target: T1, AM type 1 receptor (AMI receptor) (Homo sapiens, UniProt O60895+Q16602); experiment: Intracellular cAMP production in HEK293 cells stably expressing AM type 1 receptor (Experiments V and IX); format: cell-based; settings: for intracellular cAMP concentration-increasing activity: Experiment IX, addition at 10^−9 M or 10^−8 M, HEK293 cells
T1 construct: expressed in transfected cells; medium contains hygromycin B and Geneticin
T1 sequence (Q16602 23-461): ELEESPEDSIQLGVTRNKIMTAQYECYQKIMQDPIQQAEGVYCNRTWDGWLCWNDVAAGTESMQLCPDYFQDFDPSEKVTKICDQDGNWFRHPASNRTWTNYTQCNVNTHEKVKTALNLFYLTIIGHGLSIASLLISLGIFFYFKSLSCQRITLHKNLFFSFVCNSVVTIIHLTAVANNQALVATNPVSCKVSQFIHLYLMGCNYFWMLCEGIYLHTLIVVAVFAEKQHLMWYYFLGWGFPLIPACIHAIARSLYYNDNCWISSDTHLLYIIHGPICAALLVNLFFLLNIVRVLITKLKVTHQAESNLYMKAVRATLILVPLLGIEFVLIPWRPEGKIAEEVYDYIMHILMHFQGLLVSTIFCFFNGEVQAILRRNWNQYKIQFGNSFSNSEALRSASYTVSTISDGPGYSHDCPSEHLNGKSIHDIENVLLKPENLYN
T1 sequence (O60895 43-175): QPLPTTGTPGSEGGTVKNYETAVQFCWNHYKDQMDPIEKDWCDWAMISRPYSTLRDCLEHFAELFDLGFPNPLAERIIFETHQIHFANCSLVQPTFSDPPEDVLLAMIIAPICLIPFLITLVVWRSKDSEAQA
Excerpt: The adrenomedullin activity exerted by AM, shown above with examples, will be exerted via increased concentration of intracellular cAMP in normal cases. Thus, the increased concentration of intracellular cAMP can be considered as an index of the adrenomedullin activity of the compound according to the aspect. In each aspect of the invention, the effect of increasing concentration of intracellular cAMP can be evaluated, for example, by adding a target compound to a cultured cell line (HEK293 cell line) caused to stably express an AM type 1 receptor (AMI receptor) and measuring the amount of intracellular cAMP produced.
The physiological effect of AM is known to be exerted via increase in the concentration of intracellular cAMP (see Kitamura K et al., Biochem Biophys Res Commun, 30 Apr. 1993, Volume 192, Issue 2, pp. 553-560). Accordingly, each AM analog was added to a cultured cell line (HEK293 cell line) caused to stably express an AM type 1 receptor (AMI receptor), and the amount of intracellular cAMP produced was measured. HEK293 cells were cultured in Dulbecco's modified Eagle's medium (with 10% fetal bovine serum, 100 U/ml penicillin G, […] streptomycin, 0.25 mg/ml amphotericin B, […] hygromycin B, and […] Geneticin) in a fibronectin-coated 24-well plate (Thermo Fisher Scientific) (under 37° C., humidified, 5% CO2 conditions). After culturing for 3 days, 90%-confluent cells with accumulation of intracellular cAMP stimulated were subjected to experiment. The medium was exchanged with Hanks's balanced salt solution containing 20 mM 4-(2-hydroxyethyl)-1-piperazineethanesulfonic acid and 0.1% bovine serum albumin, AM or an AM analog was added to the cells in the presence of 0.5 mM isobutylmethylxanthine (IBMX), and the cells were incubated at 37° C. for 15 minutes. The reaction was terminated by addition of cell lysis buffer. Then, the amount of intracellular cAMP produced in the HEK293 cells of each well was measured using an ELISA kit for cAMP measurement (GE Healthcare Japan Corp., #RPN2251). […] In the figure, the abscissa represents logarithms of concentration of AM or an AM analog added (M), and the ordinate represents amounts of intracellular cAMP produced in HEK293 cells stably expressing an AMI receptor (fmol/well).
In the figure, the abscissa represents logarithms of concentration of AM or an AM analog added (M), and the ordinate represents amounts of intracellular cAMP produced in HEK293 cells stably expressing an AMI receptor (fmol/ml).

in vivo = settings: for detection in rat plasma after subcutaneous administration: 50 nmol/kg subcutaneous, Experiment X; for Cmax: male, Wistar, rat, in vivo, sc, 50 nmol/kg
Experimental: Seven-week-old male Wistar rats were prepared, and grown with normal feeds. To determine plasma AM concentrations, 50 nmol/kg of AM or an AM analog was subcutaneously administered. A peripheral blood sample was collected from the tail vein into a Kantan tube® (containing heparin Na, Eiken Chemical Co., Ltd., Tochigi, Japan) at predetermined times (0, 15, 30, 60, and 120 minutes after administration). The tube was centrifuged at 2,000×g. Plasma was collected from the tube, and transferred into a test tube (containing 21 μg of aprotinin and 0.3 mg of EDTA-2Na) and stored. […] In the figure, the abscissa represents elapsed time after subcutaneous administration (hr), and the ordinate represents concentration in plasma of AM or an AM analog (pM). In addition, maximum concentrations in blood (Cmax) of AM or the AM analogs in rat plasma after subcutaneous administration were calculated.

Row | SMILES | stability in reaction mixture with human serum (in vitro) | EC50 [1] [nM] | intracellular cAMP concentration-increasing activity [1] | detection in rat plasma after subcutaneous administration (in vivo) | Cmax (in vivo) [nM]
1 | CC[C@H](C)[C@H](NC(=O)[C@H](CCC(N)=O)NC(=O)[C@H](Cc1c[nH]cn1)NC(=O)[C@H](C)NC(=O)[C@H](CC(C)C)NC(=O)[C@H](CCCCN)NC(=O)[C@H](CCC(N)=O)NC(=O)[C@@H](NC(=O)[C@@H](NC(=O)[C@@H]1CSSC[C@H](NC(=O)CNC(=O)[C@H](Cc2ccccc2)NC(=O)[C@@H](N)CO)C(=O)N[C@@H](CCCNC(=N)N)C(=O)N[C@@H](Cc2ccccc2)C(=O)NCC(=O)N[C@@H]([C@@H](C)O)C(=O)N1)[C@@H](C)O)C(C)C)C(=O)N[C@@H](Cc1ccc(O)cc1)C(=O)N[C@@H](CCC(N)=O)C(=O)N[C@@H](Cc1ccccc1)C(=O)N[C@H](C(=O)N[C@@H](CC(=O)O)C(=O)N[C@@H](CCCCN)C(=O)N[C@@H](CC(=O)O)C(=O)N[C@@H](CCCCN)C(=O)N[C@@H](CC(=O)O)C(=O)N[C@@H](CC(N)=O)C(=O)N[C@H](C(=O)N[C@@H](C)C(=O)N1CCC[C@H]1C(=O)NCC(=O)N[C@@H](CO)C(=O)N[C@@H](CCCCN)C(=O)N[C@H](C(=O)N[C@@H](CO)C(=O)N1CCC[C@H]1C(=O)N[C@@H](CCC(N)=O)C(=O)NCC(=O)N[C@@H](Cc1ccc(O)cc1)C(N)=O)[C@@H](C)CC)C(C)C)[C@@H](C)O [[Gly-44]hAM(13-52), SFGCRFGTCTVQKLAHQIYQFTDKDKDNVAPGSKISPQGY-CONH2] (H-SFGCRFGTCTVQKLAHQIYQFTDKDKDNVAPGSKISPQGY-NH2; disulfide 4-9) | stable | 11 | approximately equivalent to that of hAM(1-52) or hAM(13-52) | detected in rat plasma 15 minutes after administration | 0.76
2 | CC[C@H](C)[C@H](NC(=O)[C@H](CCC(N)=O)NC(=O)[C@H](Cc1c[nH]cn1)NC(=O)[C@H](C)NC(=O)[C@H](CC(C)C)NC(=O)[C@H](CCCCN)NC(=O)[C@H](CCC(N)=O)NC(=O)[C@@H](NC(=O)[C@@H](NC(=O)[C@@H]1CSSC[C@H](NC(=O)CNC(=O)[C@H](Cc2ccccc2)NC(=O)[C@@H](N)CO)C(=O)N[C@@H](CCCNC(=N)N)C(=O)N[C@@H](Cc2ccccc2)C(=O)NCC(=O)N[C@@H]([C@@H](C)O)C(=O)N1)[C@@H](C)O)C(C)C)C(=O)N[C@@H](Cc1ccc(O)cc1)C(=O)N[C@@H](CCC(N)=O)C(=O)N[C@@H](Cc1ccccc1)C(=O)N[C@H](C(=O)N[C@@H](CC(=O)O)C(=O)N[C@@H](CCCCN)C(=O)N[C@@H](CC(=O)O)C(=O)N[C@@H](CCCCN)C(=O)N[C@@H](CC(=O)O)C(=O)N[C@@H](CC(N)=O)C(=O)N[C@H](C(=O)N[C@@H](C)C(=O)N1CCC[C@H]1C(=O)N[C@@H](Cc1ccccc1)C(=O)N[C@@H](CO)C(=O)N[C@@H](CCCCN)C(=O)N[C@H](C(=O)N[C@@H](CO)C(=O)N1CCC[C@H]1C(=O)N[C@@H](CCC(N)=O)C(=O)NCC(=O)N[C@@H](Cc1ccc(O)cc1)C(N)=O)[C@@H](C)CC)C(C)C)[C@@H](C)O [[Phe-44]hAM(13-52), SFGCRFGTCTVQKLAHQIYQFTDKDKDNVAPFSKISPQGY-CONH2] (H-SFGCRFGTCTVQKLAHQIYQFTDKDKDNVAPFSKISPQGY-NH2; disulfide 4-9) | stable | 5.13 | approximately equivalent to that of hAM(1-52) or hAM(13-52) | detected in rat plasma 15 minutes after administration | 0.323
3 | CC[C@H](C)[C@H](NC(=O)[C@H](CCC(N)=O)NC(=O)[C@H](Cc1c[nH]cn1)NC(=O)[C@H](C)NC(=O)[C@H](CC(C)C)NC(=O)[C@H](CCCCN)NC(=O)[C@H](CCC(N)=O)NC(=O)[C@@H](NC(=O)[C@@H](NC(=O)[C@@H]1CSSC[C@H](NC(=O)CNC(=O)[C@H](Cc2ccccc2)NC(=O)[C@@H](N)CO)C(=O)N[C@@H](CCCNC(=N)N)C(=O)N[C@@H](Cc2ccccc2)C(=O)NCC(=O)N[C@@H]([C@@H](C)O)C(=O)N1)[C@@H](C)O)C(C)C)C(=O)N[C@@H](Cc1ccc(O)cc1)C(=O)N[C@@H](CCC(N)=O)C(=O)N[C@@H](Cc1ccccc1)C(=O)N[C@H](C(=O)N[C@@H](CC(=O)O)C(=O)N[C@@H](CCCCN)C(=O)N[C@@H](CC(=O)O)C(=O)N[C@@H](CCCCN)C(=O)N[C@@H](CC(=O)O)C(=O)N[C@@H](CC(N)=O)C(=O)N[C@H](C(=O)N[C@@H](C)C(=O)N1CCC[C@H]1C(=O)N[C@@H](CO)C(=O)N[C@@H](CCCCN)C(=O)N[C@H](C(=O)N[C@@H](CO)C(=O)N1CCC[C@H]1C(=O)N[C@@H](CCC(N)=O)C(=O)NCC(=O)N[C@@H](Cc1ccc(O)cc1)C(N)=O)[C@@H](C)CC)C(C)C)[C@@H](C)O [[des-Arg-44]hAM(13-52), SFGCRFGTCTVQKLAHQIYQFTDKDKDNVAPSKISPQGY-CONH2] (H-SFGCRFGTCTVQKLAHQIYQFTDKDKDNVAPSKISPQGY-NH2; disulfide 4-9) | stable | 1.95 | approximately equivalent to that of hAM(1-52) or hAM(13-52) | detected in rat plasma 15 minutes after administration | 0.679
